Where a chain is given by its changes, count along the chain named.
What was measured:
mutant Rap1B enzyme = molecular target: T1, mutant Rap1B enzyme (Homo sapiens, UniProt P61224, L19A/N116A); assay: Selective binding to mutant Rap1B (alanine at positions 19 and 116); details: FIG. 33B
T1 construct: made in house; host or cells: E. coli BL21-Gold, pGEX-4T
T1 sequence (P61224 1-184 L19A/N116A): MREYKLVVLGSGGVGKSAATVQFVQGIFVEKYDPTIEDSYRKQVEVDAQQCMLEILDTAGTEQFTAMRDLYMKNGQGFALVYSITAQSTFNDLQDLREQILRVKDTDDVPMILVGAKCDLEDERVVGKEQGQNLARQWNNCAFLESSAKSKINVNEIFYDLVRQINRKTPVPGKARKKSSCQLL
Excerpt: (§1) To confirm the general applicability of the methods and compositions of the present invention in the context of GTPases other than H-Ras, alanine substitutions at amino acids corresponding to positions 19 and 116 of Ras were introduced into the Rap1B GTPase. As shown in the alignment of Table 1, the identical amino acid residues, i.e., leucine at position 19, and asparagine at position 116, are present in Rap1B.
(§2) The mutant Rap1B protein construct was made as described above with respect to the Ras mutant proteins. All mutant proteins were made in the pGEX-4T bacterial expression system using the Quickchange protocol […] according to the manufacturer's instructions. Mutant Rap1B cDNAs were transformed individually in BL21-Gold competent cells (Stratagene) according to the manufacturer's instructions. An overnight culture of BL21-Gold cells containing one of the GST-Rap1B plasmids described above was diluted 1:50 in Superbroth medium (Q-Biogene) supplemented with 50 mg/L carbenicillin. After it had grown to an OD=0.6, synthesis of the GST-Rap1B protein was induced by the addition of IPTG (50 mM) and by further incubation at 30° C. for 12 h. After centrifugation at 3,500 g for 15 min at 4° C., the cell pellet was frozen at −80° C. for 1 h. […] Protein concentration was determined by a Bradford assay and the protein purity was assessed by gel electrophoresis.

mutant Ras (19A-116A) = molecular target: T2, mutant Ras (19A-116A) (Homo sapiens, UniProt P01112, L19A/N116A); assay: Ras inhibitor / guanine nucleotide exchange assay with 3H-GDP, double mutant L19A-N116A; format: binding; details: for IC50: mutant (19A-116A) Ras, FIG. 34, read-out: IC50 (concentration at which 50% inhibition of GTP binding is observed); for displacement of radioactive GDP from the mutant GTPase: remaining radioactivity count
T2 construct: made in house; host or cells: E. coli BL21-Gold, pGEX vector
Excerpt: (§3) One exemplary assay which can be used are Ras “inhibition” or “guanine nucleotide exchange” assays, as schematically illustrated in FIG. 8, and described in detail in the Examples hereinbelow. The assay detects inhibition of wild-type and mutant Ras proteins by using ^3H-labelled GDP and cold (non-tritiated) synthetic Ras inhibitors.
FIG. 11 graphically illustrates the inhibition of double mutant L19A-N116A (SEQ ID No. 11) by various C-6 substituted GTP moieties (compounds 39 through 42, presented as a-d in the figure), as compared to the negative control (nothing added to displace the radiolabeled GDP), positive control (cold GDP), and background count (no GTPase enzyme added).
The GTPase modulators of the present invention were screened against wild-type and/or mutant GTPases for their effectiveness as GTPase inhibitors. Ras inhibitor assays were performed to test the activity of the synthesized modulators against various wild-type and/or mutant GTPases of interest, and/or to compare the different modulators based upon the relative observed level of inhibition.
For example, purified mutant Ras (19A-116A) or wild type H-Ras protein (0.5 to 20 μg) was incubated in 40 μL of GTP exchange buffer (50 mM Tris-HCl pH 7.5, 50 mM NaCl, 5 mM EDTA, 1 mM DTT, 1 mg/mL BSA) containing either DMSO, GTP (100 μM) or a modulator (100 μM) for 30 min at 25° C. This pre-incubation was followed by the additions of 2 μCi ^3H-GDP (NEN, #NET966) and, 10 min later, 25 mM MgCl2. After another 5 min of incubation, the reaction mixture was applied to a nitrocellulose filter (Millipore, #HAWP02500) pre-wetted with wash buffer (50 mM Tris-HCl pH 7.5, 10 mM MgCl2), the filter was then washed using 10 mL of wash buffer. Filters were dried and the bound radioactivity was measured by scintillation counting (Beckman, #LS6500).
Cold GDP was used as a positive control. Since the positive control naturally replaces the radioactive GDP in both the wild-type and mutant GTPase proteins, significant drops in radiolabeling are observed. Water was used as a negative control. All of the measurements are in comparison to a background radioactivity count, such that the level of inhibition for a given compound was determined by the number of counts in comparison to the control. Thus, a high radioactivity count is indicative of a high level of binding between the mutant GTPase and the radioactive GDP.

[1] = molecular target: T3, mutant enzyme (19A-116A) Ras binding to the Ras binding domain (RBD) of the Raf kinase (Homo sapiens, UniProt P01112, L19A/N116A); assay: Effector binding assay: pull-down with Ras binding domain (RBD) of Raf kinase, western blot; format: biochemical; details: FIG. 35
T3 construct: GST (N); made in house; host or cells: E. coli BL21-Gold, pGEX vector (Ras)
Experimental: The ability of the mutant enzyme (19A-116A) to bind to a known effector of H-Ras was confirmed. Using the Ras binding domain (RBD) of the Raf kinase, the ability of the mutant enzyme to undergo a conformational change upon GTP binding, and, thus, to bind the effector was determined. In brief, purified mutant or wild-type proteins (150 ng) were incubated in 1 mL of loading buffer (100 mM Tris-HCl pH 7.5, 2 mM EDTA, 1 mM DTT, 1 mg/mL BSA) in the presence of 10 mM of GDP, GTP, 7 d or both GTP and 7 d for 15 min at 25° C. for loading the protein with the appropriate nucleotides. Following loading, MgCl2 (20 mM) was added along with GST-RBD (1.2 mg), comprising Raf kinase amino acids 53-131, bound to glutathione sepharose beads. The resulting suspensions were incubated with rotation for 30 min at 4° C. The beads were then washed three times with 1 mL of washing buffer (50 mM Tris-HCl pH 7.5, 50 mM NaCl, 20 mM MgCl2, 1 mM DTT) to remove unbound H-Ras proteins. The beads were boiled in SDS loading buffer, and the samples were separated by electrophoresis. Following transfer, the PVDF membrane was probed with anti-H-Ras and the amount of H-Ras bound to the RBD glutathione sepharose beads was visualized using anti-rabbit HRP in conjunction with WestPico (Pierce).

wild-type Rap1B enzyme = molecular target: T4, wild-type Rap1B enzyme (Homo sapiens, UniProt P61224); assay: Selective binding, wild-type Rap1B; details: FIG. 33B
T4 construct: GST (N); made in house; host or cells: E. coli BL21-Gold, pGEX-4T (described for the mutant; inferred for the wild type)
T4 sequence (P61224 1-184): T1 sequence (P61224 1-184 L19A/N116A) with A19L, A116N
Excerpt: as §1, §2

wild type H-Ras = molecular target: T5, wild type H-Ras (Homo sapiens, UniProt P01112); assay: Ras inhibitor / guanine nucleotide exchange assay with 3H-GDP, wild type; format: binding; details: at a concentration of 100 μM
T5 construct: made in house; host or cells: E. coli BL21-Gold, pGEX vector
Excerpt: as §3
The GTPase modulators of the present invention were screened against wild-type and/or mutant GTPases for their effectiveness as GTPase inhibitors. […]
(§4) For example, purified mutant Ras (19A-116A) or wild type H-Ras protein (0.5 to 20 μg) was incubated in 40 μL of GTP exchange buffer (50 mM Tris-HCl pH 7.5, 50 mM NaCl, 5 mM EDTA, 1 mM DTT, 1 mg/mL BSA) containing either DMSO, GTP (100 μM) or a modulator (100 μM) for 30 min at 25° C. […] Filters were dried and the bound radioactivity was measured by scintillation counting (Beckman, #LS6500).
Cold GDP was used as a positive control. […] All of the measurements are in comparison to a background radioactivity count, such that the level of inhibition for a given compound was determined by the number of counts in comparison to the control. Thus, a high radioactivity count is indicative of a high level of binding between the mutant GTPase and the radioactive GDP.

single mutant N116G Ras = molecular target: T6, single mutant N116G Ras (Homo sapiens, UniProt P01112, N116G); assay: Ras inhibitor / guanine nucleotide exchange assay with 3H-GDP, single mutant N116G; format: binding; details: FIG. 12 panel B
T6 construct: made in house; host or cells: E. coli BL21-Gold, pGEX vector
Excerpt: as §3
FIG. 12 provides the inhibitor assay results for compounds 43 through 45 (e.g, respectively) as compared to the positive control GTP, for the wild-type Ras protein (panel A) and the single mutant N116G (SEQ ID No. 7). […] Thus, substitution of the N116 residue with a glycine appears to be a favorable mutation leading to expansion of the GTP binding pocket. […]
as §4
(§5) Cold GDP was used as a positive control. […] All of the measurements are in comparison to a background radioactivity count, such that the level of inhibition for a given compound was determined by the number of counts in comparison to the control. […]

GTPase mutant N116C = molecular target: T7, GTPase mutant N116C (Homo sapiens, UniProt P01112, N116C); assay: Ras inhibitor / guanine nucleotide exchange assay with 3H-GDP, mutant N116C; format: binding; details: FIG. 17
T7 construct: made in house; host or cells: E. coli BL21-Gold, pGEX vector
Excerpt: as §3
FIG. 15 provides a bar chart depicting the ability of various guanosine-based modulators to displace radiolabeled GDP from the GTPase mutant N116C.
FIGS. 16 and 17 graphically illustrates the inhibitory effect of the C-6 or N-7 substituted GMP-scaffold modulators on the double mutant N116G-T114C and the mutant N116C, respectively. […] The inhibitory effect was in the range of approximately 50-80%. […]
as §4, §5

Compound | binding to the mutant Rap1B enzyme (mutant Rap1B enzyme) | IC50 (mutant Ras (19A-116A)) | displacement of radioactive GDP from the mutant GTPase (mutant Ras (19A-116A)) | effector (Raf RBD) binding of the mutant enzyme [1] | effect on the wild-type Rap1B enzyme (wild-type Rap1B enzyme) | inhibition of the mutant GTPase (decrease in radiolabel remaining bound) (single mutant N116G Ras) | other results
Nc1nc2c(c(CCc3ccccc3)cn2[C@@H]2O[C@H](COP(=O)(O)OP(=O)(O)O)[C@@H](O)[C@H]2O)c(=O)[nH]1 [Compound 60, 7-deaza-7-(2″-phenyl)ethyl guanosine-5′-diphosphate] | bind tightly | 0.3 µM | displaced the radioactive GDP | prevents effector binding | negligably affecting | – | potency relative to GDP at displacing GTP from the mutant GTPase protein (mutant Ras (19A-116A); ratio of IC50 values): 5 times; inhibition of wild-type H-Ras (wild type H-Ras): does not inhibit
Nc1nc2c(ncn2[C@@H]2O[C@H](COP(=O)(O)OP(=O)(O)O)[C@@H](O)[C@H]2O)c(=O)[nH]1 [GDP, reference compound] | – | ~1.5 µM | – | – | – | – | –
C=CCOc1nc(N)nc2c1ncn2[C@@H]1O[C@H](COP(=O)(O)OP(=O)(O)OP(=O)(O)O)[C@@H](O)[C@H]1O [Compound 43, 6-O-allyl guanosine-5′-triphosphate] | – | – | – | – | – | significantly inhibit | –
Nc1nc(=S)c2ncn([C@@H]3O[C@H](COP(=O)(O)OP(=O)(O)OP(=O)(O)O)[C@@H](O)[C@H]3O)c2[nH]1 [Compound 45, 6-S-mercaptoguanosine-5′-triphosphate] | – | – | – | – | – | significantly inhibit | –
(2-phenyl)ethyl-GTP [Compound 52] | bind tightly | – | displaced the radioactive GDP | prompts effector binding | negligably affecting | – | –
6-S-mercaptoguanosine-5′-phosphate [Compound 82] | – | – | – | – | – | – | inhibitory effect on the N116C mutant (GTPase mutant N116C): 50-80%

From patent publication US20040241706A1, “Highly specific modulators of GTPases for target validation” (IRM, LLC, priority 2002, published 2004)
